Test results reported in PubChem BioAssay (NCI).
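1) Cells in 96-well plates. 2) Compound, 48 h, 5 concentrations. 3) Linear interpolation between surrounding doses. 4) Unreached endpoint = highest concentration. Definition used: TGI = concentration required for complete inhibition of growth.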 Where a SMILES comes first, the peptide text is derived from it. [ ]: non-standard residue; d: D form. The star is where a group is joined. ξ: configuration not given here. ξW = NC(Cc1c[nH]c2ccccc12)C(=O)O; X30 = O=C(O)[C@H]1CCC[C@H]1N*; ξF = NC(Cc1ccccc1)C(=O)O; Boc = CC(C)(C)OC(=O)*; ξK = NCCCCC(N)C(=O)O; ξT = CC(O)C(N)C(=O)O; OBn = c1ccc(CO*)cc1; tBu = CC(C)(C)*

Tests used:
Test in all cases: DTP human tumour cell line panel, 48 h
HOP-62 NSCLC = tested on: HOP-62 NSCLC
IGROV1 ovarian = tested on: IGROV1 ovarian
K-562 leukemia = tested on: K-562 leukemia
PC-3 prostate = tested on: PC-3 prostate
HCT-116 colon = tested on: HCT-116 colon
UO-31 renal = tested on: UO-31 renal
SF-539 CNS = tested on: SF-539 CNS
MDA-N = tested on: MDA-N
SK-MEL-5 melanoma = tested on: SK-MEL-5 melanoma
MDA-MB-435 = tested on: MDA-MB-435
DU-145 prostate = tested on: DU-145 prostate
MALME-3M melanoma = tested on: MALME-3M melanoma
NCI/ADR-RES ovarian = tested on: NCI/ADR-RES ovarian
U251 CNS = tested on: U251 CNS
HS 578T breast = tested on: HS 578T breast
OVCAR-4 ovarian = tested on: OVCAR-4 ovarian
RPMI-8226 leukemia = tested on: RPMI-8226 leukemia
CAKI-1 renal = tested on: CAKI-1 renal
M14 melanoma = tested on: M14 melanoma

| SMILES | TGI (HOP-62 NSCLC) [µM] | TGI (IGROV1 ovarian) [µM] | TGI (K-562 leukemia) [µM] | TGI (PC-3 prostate) [µM] | TGI (HCT-116 colon) [µM] | TGI (UO-31 renal) [µM] | TGI (SF-539 CNS) [µM] | TGI (MDA-N) [µM] | TGI (SK-MEL-5 melanoma) [µM] | TGI (MDA-MB-435) [µM] | TGI (DU-145 prostate) [µM] | TGI (MALME-3M melanoma) [µM] | TGI (NCI/ADR-RES ovarian) [µM] | TGI (U251 CNS) [µM] | TGI (HS 578T breast) [µM] | TGI (OVCAR-4 ovarian) [µM] | TGI (RPMI-8226 leukemia) [µM] | TGI (CAKI-1 renal) [µM] | TGI (M14 melanoma) [µM] |
| --- | --- | --- | --- | --- | --- | --- | --- | --- | --- | --- | --- | --- | --- | --- | --- | --- | --- | --- | --- |
| O=C(/C=C/c1cccs1)c1ccc(Cl)s1 | > 100 | > 10 | > 100 | > 100 | 32.2 | 38.6 | > 100 | > 10 | > 100 | 37.3 | > 100 | > 100 | > 100 | > 100 | > 100 | > 100 | 44 | > 100 | > 100 |
| CC(=O)[C@]1(C)[C@H](C)O[C@](C)(CO)[C@H]1O[Si](C)(C)c1ccccc1 | > 100 | 41.4 | > 100 | > 100 | > 100 | 46.6 | > 100 | > 100 | > 100 | > 100 | > 100 | > 100 | > 100 | > 100 | > 100 | > 100 | > 100 | 54.2 | > 100 |
| CCN(CC)c1nc(=O)c(C(=O)C(C)(C)C)c(C(C)(C)C)o1 | > 100 | > 100 | > 100 | > 100 | > 100 | – | > 100 | > 100 | > 100 | > 100 | > 100 | > 100 | > 100 | > 100 | > 100 | > 100 | > 100 | > 100 | > 100 |
| CC(OC(C)(C)C)C(NC(=O)C(CCCCNC(=O)OC(C)(C)C)NC(=O)C(Cc1c[nH]c2ccccc12)NC(=O)C(N)Cc1ccccc1)C(=O)NC(Cc1ccccc1)C(=O)N[C@@H]1CCC[C@@H]1C(=O)O (stereo not given in full) (H-[ξF][ξW][ξK](Boc)[ξT](tBu)[ξF]-X30) | > 100 | > 100 | > 100 | > 100 | > 100 | > 100 | 36.5 | > 100 | > 100 | > 100 | > 100 | > 100 | > 100 | 68.3 | 50.6 | > 100 | > 100 | > 100 | > 100 |
| O=C(/C=C/c1ccc(O)cc1)c1cc(O)cc(O)c1 | 29 | 26.6 | 18.4 | 23.2 | 26.3 | 21.6 | 26.5 | 26.7 | 28.9 | 38.9 | 25.2 | 47.3 | > 100 | 27.5 | > 100 | 44.6 | 21.3 | 43.8 | 29.3 |
| CCN(CC)CCNc1ccc2ncn3c4c(OC)ccc(=O)c4c(O)c1c23 | > 100 | > 43.8 | > 100 | > 100 | > 44.3 | > 100 | 31.3 | > 100 | > 39.6 | > 100 | > 100 | 98.6 | > 50.9 | > 100 | > 100 | > 100 | 17.8 | > 100 | > 100 |
| O=c1[nH]cnc2c1ncn2C1SC(CO)C(O)C1O (stereo not given) | > 100 | > 100 | > 100 | > 100 | > 100 | > 100 | > 100 | > 100 | > 100 | > 100 | > 100 | > 100 | > 100 | > 100 | > 100 | > 100 | > 100 | > 100 | > 100 |
| Cc1ccc(S(=O)(=O)c2ccsc2NC(=O)c2ccccc2)cc1 | 45 | > 100 | > 21.8 | > 100 | > 100 | > 100 | > 100 | > 100 | > 100 | > 100 | > 100 | > 100 | > 100 | > 100 | 76.2 | 73.6 | > 100 | 97.4 | > 100 |
| Cc1cn(C2CC(N=[N+]=[N-])C(CO)O2)c(=O)n(CCCCO)c1=O (stereo not given) | > 100 | > 100 | > 100 | > 100 | > 100 | > 100 | > 100 | > 100 | – | > 100 | > 100 | > 100 | > 100 | > 100 | > 100 | > 100 | > 100 | > 100 | > 100 |
| O=C1c2ccccc2-n2c1nc1cc(Cl)ccc1c2=O | > 100 | > 100 | > 100 | > 100 | > 100 | > 100 | > 100 | 29.1 | 76.4 | 4.23 | > 100 | 21.9 | > 100 | > 100 | > 100 | > 100 | > 100 | > 100 | > 100 |
| CC(C)C(NC(=O)CNC(=O)C1CCCN1C(=O)C(NC(=O)OC(C)(C)C)C(C)C)C(=O)NCC(=O)OCc1ccccc1 (stereo not given) (Boc-VPGVG-OBn; configuration not given here) | > 100 | > 100 | > 100 | > 100 | > 100 | > 100 | > 100 | > 100 | > 100 | > 100 | > 100 | > 100 | > 100 | > 100 | > 100 | > 100 | > 100 | > 100 | > 100 |
| O=C(O)c1nc2cc(C(F)(F)F)ccc2[nH]c1=O | > 100 | > 100 | > 100 | > 100 | > 100 | > 100 | > 100 | > 100 | > 100 | > 100 | > 100 | > 100 | > 100 | > 100 | > 100 | > 100 | > 100 | > 100 | > 100 |
| Cc1cn(C2CC(N=[N+]=[N-])C(C(=O)O)O2)c(=O)[nH]c1=O (stereo not given) | > 100 | > 100 | > 100 | > 100 | > 100 | > 100 | > 100 | > 100 | > 100 | > 100 | > 100 | > 100 | > 100 | > 100 | > 100 | > 100 | > 100 | > 100 | > 100 |
| O=[N+]([O-])c1cc(C(F)(F)F)ccc1S(=O)(=O)N[C@@H]1CCCC[C@H]1NS(=O)(=O)c1ccc(C(F)(F)F)cc1[N+](=O)[O-] | 30.9 | 7.5 | > 36 | 14.1 | 20.1 | > 23.2 | 3.56 | 21.6 | 8.15 | 8.07 | > 75.7 | 8.05 | 10 | 17.1 | 8.27 | 29.2 | > 22.3 | 10 | 8.95 |
| O=C1Cc2c(-c3ccccc3)cc(-c3ccc4ccccc4c3)nc2-c2ccccc2N1 | > 100 | 11.9 | 9.41 | 45.5 | > 100 | > 100 | > 100 | > 100 | > 100 | > 100 | > 100 | 31.9 | > 100 | > 100 | 7.77 | > 100 | > 100 | 12.5 | > 100 |
| Cc1nc2ccc(S(=O)(=O)Nc3ccccc3Cl)cc2c(=O)n1NC(=O)CNc1ccccc1Cl | > 100 | > 100 | > 100 | > 100 | > 100 | > 100 | > 100 | > 100 | – | > 100 | > 100 | > 100 | > 100 | > 100 | > 100 | > 100 | > 100 | > 100 | > 100 |
| Cc1ccc(C2SC(N)=Nc3c2c(C)nn3C(=O)c2ccc(Cl)cc2)cc1 (stereo not given) | > 10 | > 10 | > 10 | > 10 | > 10 | – | > 10 | > 10 | > 10 | > 10 | > 10 | > 10 | > 10 | > 10 | > 10 | > 10 | > 10 | > 10 | > 10 |
| CN(C)C=Nc1c(Br)cc(Br)c2nonc12 | > 100 | > 100 | > 100 | > 100 | > 100 | > 100 | > 100 | > 100 | > 100 | > 100 | > 100 | > 100 | > 100 | – | > 100 | > 100 | > 100 | > 100 | > 100 |
| C=CCN(c1cc(OCc2ccccc2)c2c(c1)c(C)cn2S(=O)(=O)c1ccccc1)S(C)(=O)=O | > 100 | > 100 | > 100 | > 100 | > 100 | – | > 100 | > 100 | > 100 | > 100 | > 100 | > 100 | > 100 | > 100 | > 100 | > 100 | > 100 | > 100 | > 100 |
